In assay [1] the test system is Serratia marcescens 63A095. Kind of assay: MIC on BHI agar, alone and 1:1 with ampicillin. The assay is classed as cell-based. The following applies: inhibitor alone; 18 hrs. at 37° C. The procedure: (§1) The procedure which is followed is the one recommended by the International Collaborative Study on Antibiotic Sensitivity Testing [Ericcson and Sherris, Acta. Pathologica et Microbiologia Scandinav, Supp. 217, Sections A and B: 64-68 (1971)], and employs brain heart infusion (BHI) agar and the inocula replicating device. Overnight growth tubes are diluted 100 fold for use as the standard inoculum (20,000-10,000 cells in approximately 0.002 ml are placed on the agar surface; 20 ml of BHI agar/dish). Twelve 2 fold dilutions of the test compound are employed, with initial concentration of the test drug being 200 mcg/ml. Single colonies are disregarded when reading tubes after 18 hrs. at 37° C. […] These MIC's are then compared with the MIC values obtained with a combination of the given antibiotic and the compound of the formula (6). […] The MIC values of combinations are measured using the method described by Barry and Sabath in "Manual of Clinical Microbiology", edited by Lenette, Spaulding and Truant, 2nd Edition, 1974, American Society for Microbiology.
(§2) For purposes of comparison data on the earlier beta-lactamase inhibitor, penicillanic acid 1,1-dioxide, are included.

Assay [2] concerns Escherichia coli-R 51A129. Kind of assay: MIC on BHI agar, alone and 1:1 with ampicillin. It is filed as cell-based. Particulars: for MIC: inhibitor alone, 18 hrs. at 37° C. The procedure: as §1, §2
The test system of assay [3] is Pseudomonas aeruginosa 52A104. Kind of assay: MIC on BHI agar, alone and 1:1 with ampicillin. It is filed as cell-based. Particulars: for MIC: inhibitor alone, 18 hrs. at 37° C. The procedure:
as §1, §2

The subject of assay [4] is Proteus morgani 57G001. Description: MIC on BHI agar, alone and 1:1 with ampicillin. The assay is classed as cell-based. The following applies: inhibitor alone; 18 hrs. at 37° C. The method, then:
as §1, §2

Assay [5] relates to Staphylococcus aureus 01A400. Kind of assay: MIC on BHI agar, alone and 1:1 with ampicillin. It is filed as cell-based. The following applies: inhibitor alone; 18 hrs. at 37° C. The method, then:
as §1, §2

Assay [6] relates to Klebsiella pneumoniae 53A079. Kind of assay: MIC on BHI agar, alone and 1:1 with ampicillin. It is filed as cell-based. Particulars: for MIC: inhibitor alone, 18 hrs. at 37° C. The procedure: as §1, §2
In assay [7] the test system is Enterobacter cloacae 67B009. Kind of assay: MIC on BHI agar, alone and 1:1 with ampicillin. It is filed as cell-based. The following applies: for MIC: inhibitor alone, 18 hrs. at 37° C. The procedure:
as §1, §2

Assay [8] concerns Staphylococcus aureus 01A005. Kind of assay: MIC on BHI agar, alone and 1:1 with ampicillin. The assay is classed as cell-based. The following applies: inhibitor alone; 18 hrs. at 37° C. The procedure:
as §1, §2

Assay [9] deals with Citrobacter diversus 70C031. Description: MIC on BHI agar, alone and 1:1 with ampicillin. It is filed as cell-based. Particulars: inhibitor alone; 18 hrs. at 37° C. The method, then: as §1, §2
The test system of assay [10] is Escherichia coli 51A266. Kind of assay: MIC on BHI agar, alone and 1:1 with ampicillin. The following applies: for Response: 1:1 with ampicillin (E); for MIC: inhibitor alone, 18 hrs. at 37° C. The assay is classed as cell-based. The method, then: as §1, §2
Assay [11] has as its system Pseudomonas aeruginosa 52A104 cell free beta-lactamase. Description: Inhibition of cell-free beta-lactamase (microiodometric), P. aeruginosa 52A104. The assay is classed as biochemical. Particulars: for beta-lactamase inhibiting activity, in words: Pseudomonas aeruginosa; for % Inhibition Beta-Lactam Hydrolysis: Penicillin G 33 μM, pH 6.5, 37° C. The procedure: The compounds of the present invention are thus evaluated in vitro by the ability of the compound (13) to inhibit the hydrolysis of certain beta-lactam antibiotics by beta-lactamase enzymes. The hydrolysis of ampicillin and penicillin G was determined by the microiodometric method of Novick [Biochem, J. 83, 236 (1962)]. Conditions for this assay are 0.5 M potassium phosphate, pH 6.5 and 37° C. Reactions were initiated by the addition of the cell-free beta-lactamase, except in the case of preincubation experiments in which the inhibitor and enzyme were incubated together in the assay mixture for 10 minutes before initiation of the reaction by addition of substrate. […]
(§3) Cell-free extracts were prepared by sonic treatment (using three 30-s bursts at 4° C. except for S. aureus, which was broken with a French press) of cultures grown in brain heart infusion on a rotary shaker incubator. For the S. aureus, P. aeruginose, and E. cloacae strains, de novo synthesis of beta-lactamase was induced by growing a log-phase culture in the presence of a sublethal concentration of penicillin G at 100, 1,000, and 300 microg./ml, respectively, for 2.5 hr.

Assay [12] relates to Enterobacter cloacae 67B009 cell free beta-lactamase. Kind of assay: Inhibition of cell-free beta-lactamase (microiodometric), E. cloacae 67B009. The assay is classed as biochemical. Particulars: for beta-lactamase inhibiting activity, in words: Enterobacter cloacae; for % Inhibition Beta-Lactam Hydrolysis: Penicillin G 33 μM. The method, then:
The compounds of the present invention are thus evaluated in vitro by the ability of the compound (13) to inhibit the hydrolysis of certain beta-lactam antibiotics by beta-lactamase enzymes. The hydrolysis of ampicillin and penicillin G was determined by the microiodometric method of Novick [Biochem, J. 83, 236 (1962)]. Conditions for this assay are 0.5 M potassium phosphate, pH 6.5 and 37° C. Reactions were initiated by the addition of the cell-free beta-lactamase, except in the case of preincubation experiments in which the inhibitor and enzyme were incubated together in the assay mixture for 10 minutes before initiation of the reaction by addition of substrate. With the cell-free extracts of Staphylococcus aureus, Escherichia coli, Klebsiella pneumoniae and Pseudomonas aeruginosa, the substrate was ampicillin at 33 micro M (13 microg./ml).
as §3

The subject of assay [13] is a variety of microorganisms. Description: Enhancement of ampicillin effectiveness (MIC of combinations), overall statement. It is filed as cell-based. Particulars: 1:1 with ampicillin; summary of Table II. The procedure: The procedure which is followed is the one recommended by the International Collaborative Study on Antibiotic Sensitivity Testing [Ericcson and Sherris, Acta. Pathologica et Microbiologia Scandinav, Supp. 217, Sections A and B: 64-68 (1971)], and employs brain heart infusion (BHI) agar and the inocula replicating device. Overnight growth tubes are diluted 100 fold for use as the standard inoculum (20,000-10,000 cells in approximately 0.002 ml are placed on the agar surface; 20 ml of BHI agar/dish). Twelve 2 fold dilutions of the test compound are employed, with initial concentration of the test drug being 200 mcg/ml. Single colonies are disregarded when reading tubes after 18 hrs. at 37° C. The susceptibility (MIC) of the test organism is accepted as the lowest concentration of compound capable of producing complete inhibition of growth as judged by the naked eye. The manner in which the said compounds of the formula (B) increase the effectiveness of a beta-lactam antibiotic can be appreciated by reference to experiments in which the MIC of a given antibiotic alone, and a compound of the formula (6) alone, are measured. […] The MIC values of combinations are measured using the method described by Barry and Sabath in "Manual of Clinical Microbiology", edited by Lenette, Spaulding and Truant, 2nd Edition, 1974, American Society for Microbiology. […]

The mark [14] stands for this setting: inhibitor 1.0 μM, pH 6.5, 37° C.
The mark [15] stands for this setting: inhibitor 16.5 μM, pH 6.5, 37° C.
The mark [16] stands for this setting: inhibitor 66 μM, pH 6.5, 37° C.

SMILES strings stand for the structures.

Consider `CC1(C)[C@H](C(=O)O)N2C(=O)[C@@H](CO)[C@H]2S1(=O)=O` [C, 6-beta-(Hydroxymethyl)penicillanic acid 1,1-Dioxides], for which the MIC is 200 µg/mL in [1]; 50 µg/mL in [2]; over 200 µg/mL in assay [3]; over 200 µg/mL in assay [4]; over 200 µg/mL in assay [5]; 50 µg/mL in [6]. Further, the MIC was 100 µg/mL in [7], over 200 µg/mL in [8], 200 µg/mL in assay [9] and 50 µg/mL in [10]. Moreover, the Response result is “S” in assay [2] (1:1 with ampicillin (E)), “S” in [3] (1:1 with ampicillin (E)) and “N” in assay [10].

With `CC1(C)[C@H](C(=O)O)N2C(=O)C[C@H]2S1(=O)=O` [B, Penicillanic acid 1,1-dioxide], the “beta-lactamase inhibiting activity, in words” value in assay [11] and in assay [12] was “at best a low order of activity” each time. Besides, the “% Inhibition Beta-Lactam Hydrolysis” value in assay [11] (inhibitor 66 μM) turned out to be 0%; in [12] (setting [14]), 0%; in assay [12] (setting [15]), 0%; in assay [12] (setting [16]) it was 0%; in assay [12] (inhibitor 66 μM, preincubation of inhibitor and enzyme 10 minutes), 26%. The MIC in assay [1] is 200 µg/mL; in assay [2] it was 200 µg/mL; in assay [3], over 200 µg/mL; in assay [4], 200 µg/mL; in [5] it was 200 µg/mL; in assay [6], 50 µg/mL. The minimum inhibitory concentration (MIC) in assay [7] came out at 100 µg/mL; in [8] it was 100 µg/mL; in [9], 200 µg/mL; in assay [10] it was 25 µg/mL. In addition, the Response result is “S” in assay [6] (1:1 with ampicillin (E)), “S” in [7] (1:1 with ampicillin (E)) and “N” in assay [10].

As for `CC1(C)[C@H](C(=O)O)N2C(=O)[C@@H](CO)[C@H]2S1(=O)=O` [compound (6), 6-beta-(hydroxymethyl)penicillanic acid 1,1-dioxide], in assay [13], the “enhanced spectrum and potency with ampicillin, in words” value is “synergy or pronounced synergy”.

For the compound `CC1(C)[C@H](C(=O)O)N2C(=O)[C@@H](CO)[C@H]2S1(=O)=O` [A, 6-beta-(Hydroxymethyl)penicillanic acid 1,1-dioxide], the “beta-lactamase inhibiting activity, in words” value in assay [11] and in [12] was “Especially noteworthy” throughout. The “% Inhibition Beta-Lactam Hydrolysis” value in assay [11] (inhibitor 1.0 μM) came to 21.7%; in [11] (inhibitor 16.5 μM) it was 93.4%; in [11] (inhibitor 66 μM), 98.8%; in assay [12] (setting [14]), 11.4%; in [12] (setting [15]), 52.0%; in assay [12] (setting [16]) it was 77.0%.

As a reminder, the MIC is the lowest concentration that inhibits growth of the organism.

Values taken from US4376076A, “Bis-esters of 1,1-alkanediols with 6-beta-hydroxymethylpenicillanic acid 1,1-dioxide” (priority 1982, dated 1983).
